# pIC50: −log10 of the molar value.
# Tests used:
# [1] = Inhibition of Plasmodium falciparum falcipain-2 using Z-Leu-Arg-AMC as substrate after 10 mins by spectrofluorometric analysis
# Papain = molecular target: T1, Papain (Carica papaya, UniProt P00784); assay: Inhibition of papaya papain using Z-Leu-Leu-Arg-AMC as substrate measured for 30 mins by fluorescence assay
# T1 sequence (P00784 whole entry): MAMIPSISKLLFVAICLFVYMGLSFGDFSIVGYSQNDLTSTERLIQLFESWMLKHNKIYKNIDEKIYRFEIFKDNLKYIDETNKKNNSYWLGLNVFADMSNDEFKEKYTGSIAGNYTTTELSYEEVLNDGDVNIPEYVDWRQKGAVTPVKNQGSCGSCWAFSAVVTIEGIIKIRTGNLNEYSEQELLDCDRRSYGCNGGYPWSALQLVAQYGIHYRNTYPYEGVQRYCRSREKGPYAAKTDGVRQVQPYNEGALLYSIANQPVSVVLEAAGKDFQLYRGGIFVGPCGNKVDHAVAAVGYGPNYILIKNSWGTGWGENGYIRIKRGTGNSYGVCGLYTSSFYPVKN
# Plasmodium falciparum = assay: Antiplasmodial activity against chloroquine-resistant ring stage of Plasmodium falciparum W2 infected in human RBC after 48 hrs by flow cytometric analysis; assay type: functional, organism-based; conditions: W2, 48 h
# HEK-293T = assay: Cytotoxicity against HEK293T cells assessed as inhibition of cell viability after 48 hrs by MTT assay; assay type: cell-based; conditions: Homo sapiens
# [2] = Selectivity index, ratio of IC50 for HEK293T cells to IC50 for chloroquine-resistant ring stage of Plasmodium falciparum W2; assay type: toxicity, cell-based, HEK-293T; conditions: human; read-out: Ratio IC50
# [3] = Cytotoxicity against mouse NIH/3T3 cells assessed as inhibition of cell viability after 48 hrs by MTT assay; assay type: cell-based; conditions: NIH3T3, 48 h
SMILES,pIC50 [1],pIC50 (Papain),pIC50 (Plasmodium falciparum),pIC50 (HEK-293T),selectivity ratio [2],pIC50 [3]
COc1cccc(Nc2c(Nc3cccc(OC)c3)c(=O)c2=O)c1,< 4.30,< 5.30,< 5.00,–,–,–
CCN(CC)CCCNc1c(NCCCN(CC)CC)c(=O)c1=O,< 4.30,< 5.00,< 5.00,–,–,–
COc1c(Nc2ccc(N3CCCCC3)cc2)c(=O)c1=O,–,< 5.00,< 5.00,–,–,–
COc1c(Nc2ccc(C(C)(C)C)cc2)c(=O)c1=O,–,< 5.00,< 5.00,–,–,–
COc1c(Nc2ccc(Cl)cc2)c(=O)c1=O,–,< 5.00,< 5.00,–,–,–
COc1ccc(Nc2c(OC)c(=O)c2=O)cc1,–,< 5.00,< 5.00,–,–,–
COc1c(Nc2cccnc2)c(=O)c1=O,–,< 5.00,< 5.00,–,–,–
COc1c(NC(CO)Cc2ccccc2)c(=O)c1=O (configuration not stated),< 4.30,< 5.00,< 5.00,–,–,–
CCCCOc1c(Nc2ccc(N3CCCCC3)cc2)c(=O)c1=O,–,< 5.00,5.50,< 4.00,> 32,< 4.00
CCCCOc1c(Nc2ccc(C(C)(C)C)cc2)c(=O)c1=O,< 4.30,< 5.00,5.58,4.91,4.7,4.76
O=c1c(Nc2ccc(N3CCCCC3)cc2)c(Nc2ccc(N3CCCCC3)cc2)c1=O,< 4.30,5.55,5.38,< 4.30,> 12,< 4.30
CC(C)(C)c1ccc(Nc2c(Nc3ccc(C(C)(C)C)cc3)c(=O)c2=O)cc1,4.61,5.09,6.00,< 4.00,> 101,< 4.00
O=c1c(Nc2cccnc2)c(Nc2cccnc2)c1=O,–,< 5.00,< 5.00,–,–,–
O=c1c(NC(CO)Cc2ccccc2)c(NC(CO)Cc2ccccc2)c1=O (configuration not stated),–,< 5.00,< 5.00,–,–,–
CN(C)CCNc1c(NCCN(C)C)c(=O)c1=O,–,< 5.00,< 5.00,–,–,–
CCN(CC)CCNc1c(NCCN(CC)CC)c(=O)c1=O,< 4.30,< 5.00,< 5.00,–,–,–
CN(C)CCCNc1c(NCCCN(C)C)c(=O)c1=O,–,< 5.00,< 5.00,–,–,–
CC(C)NCCCNc1c(NCCCNC(C)C)c(=O)c1=O,< 4.30,< 5.00,< 5.00,–,–,–
CN(C)CC(C)(C)CNc1c(NCC(C)(C)CN(C)C)c(=O)c1=O,–,< 5.00,< 5.00,–,–,–
CCN(CC)CCCC(C)Nc1c(NC(C)CCCN(CC)CC)c(=O)c1=O (configuration not stated),–,< 5.00,< 5.00,–,–,–
CCCCNc1c(NCCCC)c(=O)c1=O,–,< 5.00,< 5.00,–,–,–

SMILES,pIC50 [1],pIC50 (Papain),pIC50 (Plasmodium falciparum),pIC50 (HEK-293T),selectivity ratio [2],pIC50 [3]
CC(Nc1c(NC(C)c2ccccc2)c(=O)c1=O)c1ccccc1 (configuration not stated),–,< 5.00,< 5.00,–,–,–
O=c1c(NC2CCCCC2)c(NC2CCCCC2)c1=O,–,< 5.00,< 5.00,–,–,–
COc1c(NNC(=O)[C@H](CC(C)C)NC(=O)OC(C)(C)C)c(=O)c1=O,–,< 5.00,5.07,< 4.00,> 12,< 4.00
COc1c(N(Cc2ccccc2)NC(=O)[C@H](CC(C)C)NC(=O)OC(C)(C)C)c(=O)c1=O,–,< 5.00,< 6.00,–,–,–
COc1c(N(CCc2ccccc2)NC(=O)[C@H](CC(C)C)NC(=O)OC(C)(C)C)c(=O)c1=O,–,< 5.00,5.20,< 4.00,> 16,< 4.00
COc1c(NNC(=O)[C@H](CC(C)C)NC(=O)N2CCOCC2)c(=O)c1=O,–,< 5.00,< 5.00,–,–,–
COc1c(N(CCc2ccccc2)NC(=O)[C@H](CC(C)C)NC(=O)N2CCOCC2)c(=O)c1=O,–,< 5.00,< 5.00,–,–,–
COc1c(N(CCc2ccccc2)NC(=O)[C@H](CC(C)C)NC(=O)OCc2ccccc2)c(=O)c1=O,–,< 5.00,5.52,< 4.00,> 33,< 4.00
COc1c(N(CCc2ccccc2)NC(=O)CNC(=O)OCc2ccccc2)c(=O)c1=O,–,< 5.00,5.03,< 4.00,> 11,< 4.00
COc1c(N(CCc2ccccc2)NC(=O)[C@H](Cc2ccccc2)NC(=O)OCc2ccccc2)c(=O)c1=O,–,< 5.00,5.50,< 4.00,> 32,< 4.00
CCCCOc1c(NNC(=O)[C@H](CC(C)C)NC(=O)OC(C)(C)C)c(=O)c1=O,–,< 5.00,< 5.00,–,–,–
CCCCOc1c(N(CCc2ccccc2)NC(=O)[C@H](CC(C)C)NC(=O)OC(C)(C)C)c(=O)c1=O,–,< 5.00,< 5.00,–,–,–
CCCCOc1c(NNC(=O)[C@H](CC(C)C)NC(=O)N2CCOCC2)c(=O)c1=O,–,< 5.00,5.02,< 4.00,> 11,< 4.00
CCCCOc1c(N(CCc2ccccc2)NC(=O)[C@H](CC(C)C)NC(=O)N2CCOCC2)c(=O)c1=O,–,< 5.00,< 5.00,–,–,–
CCCCOc1c(N(CCc2ccccc2)NC(=O)[C@H](CC(C)C)NC(=O)OCc2ccccc2)c(=O)c1=O,–,< 5.00,5.35,< 4.00,> 22,< 4.00
CCCCOc1c(N(CCc2ccccc2)NC(=O)CNC(=O)OCc2ccccc2)c(=O)c1=O,–,< 5.00,5.29,< 4.00,> 19,< 4.00
CCCCOc1c(N(CCc2ccccc2)NC(=O)[C@H](Cc2ccccc2)NC(=O)OCc2ccccc2)c(=O)c1=O,–,< 5.00,5.33,< 4.00,> 21,< 4.00
CC(C)C[C@H](Nc1c(Nc2ccc(C(C)(C)C)cc2)c(=O)c1=O)C(=O)NN(Cc1ccccc1)C(=O)/C=C/S(=O)(=O)c1ccccc1,–,–,< 5.00,–,–,–
CC(C)C[C@H](Nc1c(NC(CO)Cc2ccccc2)c(=O)c1=O)C(=O)NN(Cc1ccccc1)C(=O)/C=C/S(=O)(=O)c1ccccc1 (some centres not stated),–,–,< 5.00,–,–,–
CC(C)C[C@H](NC(=O)[C@H]1O[C@@H]1C(=O)O)C(=O)NCCCCN=C(N)N [E-64],7.22,6.92,–,–,–,–

# From ChEMBL document CHEMBL3217701, “Squaric acid: a valuable scaffold for developing antimalarials?” (Medchemcomm, 2012)
